In patent US7838509B2, “Methods and compositions to improve germ cell and embryo survival and function” (Bio-Origyn LLC, priority 1995, dated 2010):

Test system: human sperm
Experiment: Human sperm cultured in PCAGH or monomeric sugars: sperm motility vs control HTF (Table 3)
Format: cell-based
Conditions: for sperm motility compared to control HTF: human sperm; for sperm motility throughout a 24-hr culture period: compared to sperm cultured in arabinose and galactose or in control medium with no polysaccharides
Procedure: Sperm Motility. Sperm motility measurements may be performed by subjective visual determination using a phase contrast microscope to group sperm into total percent motile (swimming), and total percent progressively motile (swimming forward). AIso the speed of those sperm which are progressively motile is determined, i.e., fast, medium, slow.
Alternatively, CASA can be used to objectively determine the motility characteristics of individual sperm cells in a sample (Davis, Infertility & Reproductive Medicine Clinics 3:341, 1992). A 7 μl sperm sample is placed onto a slide or chamber designed for CASA, and the computer tracks individual sperm cells and determines their motility as to speed over distance. Data is then expressed as percent motile, and specific measurements are given for parameters, such as mean path velocity and track speed. The measurements of velocity and linearity correlate with future fertility in several species studied.
Samples containing sperm are incubated at 37° C. (human) or 39° C. (animal) in 5% CO2 and humidified air. At various timed intervals, sperm survival rate, motility characteristics, functional membrane health and membrane lipid peroxidation levels are determined as described in Example 2.

O=C[C@H](O)[C@@H](O)[C@@H](O)[C@H](O)CO [galactose, reference compound]
sperm motility compared to control HTF (culture time 3 hr): = (Equivalent sperm motility compared to control HTF) | sperm motility compared to control HTF (culture time 15 hr): = (Equivalent sperm motility compared to control HTF) | sperm motility compared to control HTF (culture time 24 hr): = (Equivalent sperm motility compared to control HTF)

O=C[C@@H](O)[C@H](O)[C@H](O)CO [arabinose, reference compound]
sperm motility compared to control HTF (culture time 3 hr): = (Equivalent sperm motility compared to control HTF) | sperm motility compared to control HTF (culture time 15 hr): = (Equivalent sperm motility compared to control HTF) | sperm motility compared to control HTF (culture time 24 hr): = (Equivalent sperm motility compared to control HTF)

galactopyranosylarabinose
sperm motility throughout a 24-hr culture period: superior sperm motility | sperm motility compared to control HTF (culture time 3 hr): + | sperm motility compared to control HTF (culture time 15 hr): + | sperm motility compared to control HTF (culture time 24 hr): +

O=C[C@H](O)[C@@H](O)[C@@H](O)[C@H](O)C(=O)O [galacturonic acid]
sperm motility throughout a 24-hr culture period: superior sperm motility | sperm motility compared to control HTF (culture time 3 hr): + | sperm motility compared to control HTF (culture time 15 hr): + | sperm motility compared to control HTF (culture time 24 hr): +
